Data on 25 compounds can be found in patent publication US9663478B2, “Benzotriazine oxides as drugs targeting Mycobacterium tuberculosis” (priority 2011, dated 2017).

For data set [1], the system named is Vero cells. Particulars: African green monkey, 72 h.
Data set [2] has as its system Mtb H37Rv. Briefly: TB MIC - SRI, resazurin-based microplate assay. The format is cell-based, Mycobacterium tuberculosis. Particulars: Mycobacterium tuberculosis, H37RV. (The colour change of resazurin is a common sign of viable cells or microbes.)
The subject of data set [3] is Mtb H37Rv. The experiment in a line: TB MIC - ITR (UIC), Institute for Tuberculosis Research. The format is cell-based, Mycobacterium tuberculosis. Particulars: Table P3.
[4] abbreviates: Tables P1-P3, read-out: TB MIC - SRI.
The mark [5] stands for this setting: read-out: Activity against H37Rv, Table P4.
The mark [6] stands for this setting: read-out: TB MIC - SRI, Tables P1-P3.
[7] abbreviates: Table P4, read-out: Activity against H37Rv.

Structures are written as SMILES. Converted amounts (≈) assume the structure as drawn. Read-outs that look alike come from different tables or passages of the source.

With `[O-][n+]1nc(NC2CCC2)[n+]([O-])c2cc3c(cc21)CCC3` [SRI-012403], the “VERO Tox-SRI” value in data set [1] was found to be 33.6. Moreover, the MIC in data set [2] (setting [4]) was 0.625 µg/mL (≈ 2.3 µM).
The corresponding values for `Cc1cc2c(cc1C)[n+]([O-])c(NC1CCC1)n[n+]2[O-]` [SRI-012459] are 21.8 and 0.625 µg/mL (≈ 2.4 µM).
With `Cc1cccc2c1[n+]([O-])c(NC1CCC1)n[n+]2[O-]` [SRI-012460], the “VERO Tox-SRI” value in data set [1] was determined as 21.8. For the same compound, the MIC in data set [2] (setting [4]) stood at 0.312 µg/mL (≈ 1.27 µM).
Consider `COc1ccc2c(c1)[n+]([O-])nc(N[C@@H]1C[C@H]3CC[C@@H]1C3)[n+]2[O-]` [SRI-012462], for which, in data set [2] (setting [4]), the MIC worked out at 0.625 µg/mL (≈ 2.07 µM).
Turning to `COc1ccc2c(c1)[n+]([O-])nc(NC1CCC1)[n+]2[O-]` [SRI-012463], the “VERO Tox-SRI” value in data set [1] is 9.85. Also, the MIC in data set [2] (setting [4]) came out at 0.625 µg/mL (≈ 2.38 µM).
Consider `CCNc1n[n+]([O-])c2cc(Br)ccc2[n+]1[O-]` [SRI-012464], for which the MIC in data set [2] (setting [4]) came to 0.625 µg/mL (≈ 2.19 µM).
In the case of `[O-][n+]1nc(NC2CCC2)[n+]([O-])c2ccc(Br)cc21` [SRI-012465], the MIC in data set [2] (setting [4]) was 0.156 µg/mL (≈ 0.501 µM).
Same read-out and setting: to `[O-][n+]1nc(NC2CCCC2)[n+]([O-])c2ccc(Br)cc21` [SRI-012466] belongs 0.156 µg/mL (≈ 0.48 µM).
Take `[O-][n+]1nc(N[C@@H]2C[C@H]3CC[C@@H]2C3)[n+]([O-])c2ccc(Br)cc21` [SRI-012467]: the “VERO Tox-SRI” value in data set [1] is recorded as 0.81. Further, the MIC in data set [2] (setting [4]) worked out at 0.312 µg/mL (≈ 0.888 µM).
As for `CCNc1n[n+]([O-])c2cc(C)c(OC)cc2[n+]1[O-]` [SRI-012468], the “VERO Tox-SRI” value in data set [1] is listed as 100.
Take `COc1cc2c(cc1C)[n+]([O-])nc(NC1CCC1)[n+]2[O-]` [SRI-012469]: the “VERO Tox-SRI” value in data set [1] is given as 50.
Same read-out and setting: the figure for `COc1cc2c(cc1C)[n+]([O-])nc(N[C@@H]1C[C@H]3CC[C@@H]1C3)[n+]2[O-]` [SRI-012470] is 50.
Regarding `Cc1cccc2c1[n+]([O-])c(NC1CCCC1)n[n+]2[O-]` [SRI-012473], in data set [1], the “VERO Tox-SRI” value stood at 3.7. Further, the MIC in data set [2] (setting [4]) turned out to be 0.312 µg/mL (≈ 1.2 µM).
The compound `[O-][n+]1nc(N2CCCC2)[n+]([O-])c2ccccc21` [SRI-012495] returned a TB MIC - UIC in data set [3] of 17.4 µg/mL. The MIC in data set [2] (setting [4]) worked out at 0.312 µg/mL (≈ 1.34 µM).
For `CCNc1n[n+]([O-])c2cc3c(cc2[n+]1[O-])CCCC3` [SRI-012496], the “VERO Tox-SRI” value in data set [1] was determined as 21.78. Also, the MIC in data set [2] (setting [5]) and in data set [2] (setting [6]) was 1.25 µg/mL (≈ 4.8 µM) each time.
For the compound `[O-][n+]1nc(NC2CCC2)[n+]([O-])c2cc3c(cc21)CCCC3` [SRI-012497], the “VERO Tox-SRI” value in data set [1] is 50. Further, the MIC in data set [2] (setting [5]) and in data set [2] (setting [6]) was 1.25 µg/mL (≈ 4.37 µM) throughout.
`[O-][n+]1nc(NC2CC3CCC2C3)[n+]([O-])c2cc3c(cc21)CCCC3` (stereo not drawn) [SRI-012498]: in data set [1], the “VERO Tox-SRI” value was 50. Also, the MIC in data set [2] (setting [5]) and in data set [2] (setting [6]) was 1.25 µg/mL (≈ 3.83 µM) throughout.
As for `[O-][n+]1nc(N2CCCC2)[n+]([O-])c2cc3c(cc21)CCC3` [SRI-012530], the MIC in data set [2] (setting [5]) is 0.62 µg/mL (≈ 2.28 µM); in data set [2] (setting [6]), 0.625 µg/mL (≈ 2.3 µM).
Regarding `[O-][n+]1nc(N2CCCCC2)[n+]([O-])c2cc3c(cc21)CCC3` [SRI-012562], the MIC in data set [2] (setting [4]) was 0.625 µg/mL (≈ 2.18 µM).
On to `CN(C)c1n[n+]([O-])c2cc3c(cc2[n+]1[O-])CCC3` [SRI-012563], for which the MIC in data set [2] (setting [4]) came to 0.625 µg/mL (≈ 2.54 µM).
Still for that read-out and setting: to `CN(Cc1ccccc1)c1n[n+]([O-])c2cc3c(cc2[n+]1[O-])CCC3` [SRI-012564] belongs 0.312 µg/mL (≈ 0.968 µM); to `CN(CCc1ccccc1)c1n[n+]([O-])c2cc3c(cc2[n+]1[O-])CCC3` [SRI-012565], 0.312 µg/mL (≈ 0.927 µM).
As to `O=S1(=O)CCN(c2n[n+]([O-])c3cc4c(cc3[n+]2[O-])CCC4)CC1` [SRI-012566], the MIC in data set [2] (setting [7]) and in data set [2] (setting [4]) was 5 µg/mL (≈ 14.9 µM) each time.
With `CC1CCCCN1c1n[n+]([O-])c2cc3c(cc2[n+]1[O-])CCC3` (stereo not drawn) [SRI-012567], the MIC in data set [2] (setting [7]) and in data set [2] (setting [4]) was 1.25 µg/mL (≈ 4.16 µM) each time.
For the compound `CS(=O)(=O)N1CCN(c2n[n+]([O-])c3cc4c(cc3[n+]2[O-])CCC4)CC1` [SRI-012568], the MIC in data set [2] (setting [7]) and in data set [2] (setting [4]) was 5 µg/mL (≈ 13.7 µM) in each case.
